Measured values: the OligoGym collection
After the bases stand the sugars from the 5' end (letter, count) and the backbone: PS all phosphorothioate, else s phosphorothioate and o phosphodiester by linkage. Methylation of C is not given here. e = 2'-O-(2-methoxyethyl) (MOE); k = constrained ethyl (cEt); d = 2'-deoxy (DNA); m = 2'-O-methyl

Molecular target: HSD17B13
Details: ASO, HepaRG

Sequence	target mRNA inhibition (1 µM) [%]	also measured
CTGCUAGTGCCAAACC (sugars k3 d1 m1 d8 k3, PS)	67	–
TTAGUCTTGATGTAGT (sugars k3 d1 m1 d8 k3, PS)	50	–
TTTCATGGCCTTACCA (sugars k3 d10 k3, PS)	52	–
TTGGCCGAGGAGGGCG (sugars k3 d10 k3, PS)	3	–
CTAAAACTGAAGGTCT (sugars k3 d10 k3, PS)	40	–
TTCTTGCAGAAATTCA (sugars k3 d10 k3, PS)	42	–
GAGCATTCATCAGATG (sugars k3 d10 k3, PS)	64	–
CCTGCCTATTCCATGC (sugars k3 d10 k3, PS)	24	–
TGCTGGAACAATATGG (sugars k3 d10 k3, PS)	36	–
TTACATCACCCACTTC (sugars k3 d10 k3, PS)	37	–
GTTATTCTCTTGACAA (sugars k3 d10 k3, PS)	42	–
TTCACCTGATTTAGAG (sugars k3 d10 k3, PS)	9	–
TGTCAGACCTCTGTGA (sugars k3 d10 k3, PS)	0	–
GGGAGGTAGCTTTTGT (sugars k3 d1 m1 d8 k3, PS)	17	–
TTGCACCGTTTTGGGC (sugars kkdddddddddkekek, PS)	26	–
ATAGCCAGTACAGTTC (sugars k3 d10 k3, PS)	65	–
TGTCCCAGCATTATTC (sugars k3 d10 k3, PS)	31	–
CATATGTGAAGAGCTG (sugars k3 d10 k3, PS)	25	–
ACATCTCTGGGACCAA (sugars k3 d9 k3 e1, PS)	65	–
AATCACAAGTAAGGTA (sugars k3 d9 k3 e1, PS)	63	–
AAAAUAGAGTCGGTCA (sugars k3 d1 m1 d8 k3, PS)	62	–
GTTTTTCTCTTGACAA (sugars k3 d10 k3, PS)	59	–
TGGAAGATTAATCATA (sugars k3 d10 k3, PS)	12	–
TCCTACAGTGCTTAGT (sugars k3 d10 k3, PS)	44	–

Sequence	target mRNA inhibition (1 µM) [%]	also measured
GCTTAATGTTCAGTTT (sugars k3 d10 k3, PS)	50	–
AATATATACCTGTTGC (sugars k3 d10 k3, PS)	38	–
CATCCTTGGTGCTGAG (sugars k3 d10 k3, PS)	12	–
CATTCTAAACTACTAT (sugars k3 d10 k3, PS)	11	–
AATCATGGTGTGGAGG (sugars k3 d10 k3, PS)	11	–
TAGTGCCAAACCAATG (sugars k3 d1 m1 d8 k3, PS)	55	–
TGTATTTCGCTACTGT (sugars k3 d10 k3, PS)	76	target mRNA inhibition (0.02 µM): 12%; target mRNA inhibition (0.078 µM): 18%; target mRNA inhibition (0.313 µM): 46%; target mRNA inhibition (1.25 µM): 80%; target mRNA inhibition (5 µM): 90%
TGGAATGCTACTTGAA (sugars k3 d9 k3 e1, PS)	57	–
CTTACGACTTCATCTG (sugars k3 d10 k3, PS)	38	–
TCCATAATAATAGCTC (sugars k3 d10 k3, PS)	69	–
GATGTGGCCATGATTT (sugars k3 d10 k3, PS)	9	–
AATAGGAGAGTCTTTC (sugars k3 d10 k3, PS)	47	–
GCAGAAATTCACCTTG (sugars k3 d1 m1 d8 k3, PS)	54	–
CTTGTGTAGTCCTAGG (sugars k3 d10 k3, PS)	71	target mRNA inhibition (0.02 µM): 7%; target mRNA inhibition (0.078 µM): 13%; target mRNA inhibition (0.313 µM): 39%; target mRNA inhibition (1.25 µM): 70%; target mRNA inhibition (5 µM): 87%
ACTAATATTGAGGCAC (sugars k3 d10 k3, PS)	19	–
GTTTTGATACCAGTTT (sugars k3 d10 k3, PS)	67	–
CAGTTATTAGAAGTCA (sugars k3 d10 k3, PS)	85	target mRNA inhibition (0.02 µM): 0%; target mRNA inhibition (0.078 µM): 0%; target mRNA inhibition (0.313 µM): 0%; target mRNA inhibition (1.25 µM): 56%; target mRNA inhibition (5 µM): 88%
ACCCATTCTAACTTGA (sugars k3 d10 k3, PS)	0	–
GGCAAAGATCTGGCCA (sugars k3 d10 k3, PS)	10	–
TAGGAACATTCCCTCT (sugars k3 d10 k3, PS)	24	–
CTGAAATTGATACACC (sugars k3 d10 k3, PS)	67	–
AGTGAAATCTTGTGTA (sugars k3 d10 k3, PS)	41	–
TTATTGGTATGGTAAG (sugars k3 d10 k3, PS)	14	–
GATATTCTGTGGCATG (sugars k3 d10 k3, PS)	46	–

Sequence	target mRNA inhibition (1 µM) [%]	also measured
CAATCTAGCAACCTCT (sugars k3 d10 k3, PS)	51	–
GTTTAACTTTCCTCCG (sugars k3 d10 k3, PS)	30	–
CGATCCTATATACATC (sugars kkdddddddddkekek, PS)	29	–
TGGTGAACCCAGTATT (sugars k3 d10 k3, PS)	0	–
CCTTACCAGAATTTAC (sugars k3 d10 k3, PS)	63	–
TCTTATGTAATAGCCA (sugars k3 d10 k3, PS)	77	target mRNA inhibition (0.02 µM): 0%; target mRNA inhibition (0.078 µM): 2%; target mRNA inhibition (0.313 µM): 35%; target mRNA inhibition (1.25 µM): 74%; target mRNA inhibition (5 µM): 91%
GAGTCGGTCACCTTTC (sugars k3 d9 k3 e1, PS)	74	target mRNA inhibition (0.02 µM): 0%; target mRNA inhibition (0.078 µM): 0%; target mRNA inhibition (0.313 µM): 0%; target mRNA inhibition (1.25 µM): 51%; target mRNA inhibition (5 µM): 76%
AAGTCCAGAATAGAGT (sugars k3 d10 k3, PS)	60	–
ATTGCATAAGAGCCAA (sugars k3 d10 k3, PS)	67	–
AACTTCATAGTGGACT (sugars k3 d10 k3, PS)	68	–
TGACATAGACATGTGT (sugars k3 d10 k3, PS)	42	–
CTTATTGGTAAGTATT (sugars kkdddddddddkekek, PS)	9	–
CCCCGAATTATTTCTT (sugars k3 d10 k3, PS)	35	–
AGAGTATTTCCTCTGG (sugars k3 d10 k3, PS)	32	–
AGACTTTGAGACTCTT (sugars k3 d9 k3 e1, PS)	41	–
CTCAAGGAGTACTTCA (sugars k3 d10 k3, PS)	82	target mRNA inhibition (0.02 µM): 2%; target mRNA inhibition (0.078 µM): 2%; target mRNA inhibition (0.313 µM): 30%; target mRNA inhibition (1.25 µM): 78%; target mRNA inhibition (5 µM): 95%
CATTTAGAATACGCTG (sugars k3 d10 k3, PS)	25	–
GTTAGTATAGTTATCT (sugars k3 d9 k3 e1, PS)	71	–
ATTAAGATGTCCAGGC (sugars k3 d10 k3, PS)	31	–
ATCCTATATACATCCA (sugars k3 d10 k3, PS)	76	target mRNA inhibition (0.02 µM): 3%; target mRNA inhibition (0.078 µM): 8%; target mRNA inhibition (0.313 µM): 36%; target mRNA inhibition (1.25 µM): 72%; target mRNA inhibition (5 µM): 92%
CGATGGAAGAAGTGCT (sugars k3 d10 k3, PS)	3	–
GTAGCTTTTGTCCACC (sugars k3 d9 k3 e1, PS)	67	–
TTTGCAGCATTGATTC (sugars k3 d10 k3, PS)	53	–
ACATTAGCAAGCTAAG (sugars k3 d9 k3 e1, PS)	41	–

Sequence	target mRNA inhibition (1 µM) [%]	also measured
CGTTTTGGGCTAATGA (sugars k3 d9 k3 e1, PS)	52	–
TCCTGTGTTAGCTTTA (sugars k3 d10 k3, PS)	56	–
GAACCGTATTCCCAAC (sugars k3 d10 k3, PS)	72	–
CTGATTTAGTTGGTAG (sugars k3 d10 k3, PS)	78	target mRNA inhibition (0.02 µM): 0%; target mRNA inhibition (0.078 µM): 0%; target mRNA inhibition (0.313 µM): 41%; target mRNA inhibition (1.25 µM): 70%; target mRNA inhibition (5 µM): 88%
TCTAAGTTAGCCCCCA (sugars kkdddddddddkekek, PS)	19	–
GACTTTGAGACTCTTG (sugars k3 d10 k3, PS)	65	–
TCTTAGCTGTGCACTC (sugars k3 d9 k3 e1, PS)	52	–
CTAGTTACAAACCACC (sugars k3 d10 k3, PS)	43	–
TAGAACTCCCAACCCA (sugars k3 d10 k3, PS)	44	–
CTACACTAATATTGAG (sugars k3 d1 m1 d8 k3, PS)	29	–
CCTTATGATAATTTGG (sugars k3 d10 k3, PS)	29	–
ATTAGATGGTAAGGAG (sugars k3 d10 k3, PS)	4	–
CTTTGCAGCATTGATT (sugars k3 d9 k3 e1, PS)	56	–
AGTAGTGTAAGCTGAG (sugars k3 d1 m1 d8 k3, PS)	68	–
AGGTTGAGATAAAGCT (sugars k3 d10 k3, PS)	74	target mRNA inhibition (0.02 µM): 20%; target mRNA inhibition (0.078 µM): 27%; target mRNA inhibition (0.313 µM): 40%; target mRNA inhibition (1.25 µM): 69%; target mRNA inhibition (5 µM): 86%
CTAAACATCTCTGGGA (sugars kkdddddddddkekek, PS)	29	–
TAATGGTAAACTGTAT (sugars k3 d10 k3, PS)	32	–
ATAAGTAGTCTGCCTG (sugars k3 d10 k3, PS)	43	–
TGGTAACGGTGATCAA (sugars k3 d9 k3 e1, PS)	35	–
AAGTUAGCCCCCAGGA (sugars k3 d1 m1 d8 k3, PS)	0	–
CTTCCAAGCATTCCAT (sugars k3 d10 k3, PS)	57	–
ATTCUGTGGCATGGCT (sugars k3 d1 m1 d8 k3, PS)	59	–
